Data on 10 molecules can be found in PubChem BioAssay AID1259407 (Chemical Carcinogenesis Research Information System (CCRIS), 2018).

The structures appear in SMILES notation. The source made the active and inactive calls. No rule for the calls is given here.

The data set concerns CCRIS mutagenicity, Ames/micronucleus/aberration tests. As to the kind of experiment: CCRIS mutagenicity studies.
Setting [1] is: Test System: AMES SALMONELLA TYPHIMURIUM, Strain/Indicator: TA98, Metabolic Activation: NONE, Method: STANDARD PLATE.
Where [2] appears, read: Test System: AMES SALMONELLA TYPHIMURIUM, Strain/Indicator: TA98, Metabolic Activation: RAT, LIVER, S-9, AROCLOR 1254, Method: STANDARD PLATE.
Setting [3] is: Test System: AMES SALMONELLA TYPHIMURIUM, Strain/Indicator: TA100, Metabolic Activation: NONE, Method: STANDARD PLATE.
Setting [4] is: Test System: AMES SALMONELLA TYPHIMURIUM, Strain/Indicator: TA100, Metabolic Activation: RAT, LIVER, S-9, AROCLOR 1254, Method: STANDARD PLATE.
The mark [5] stands for this setting: Test System: AMES SALMONELLA TYPHIMURIUM, Strain/Indicator: TA1535, Metabolic Activation: NONE, Method: STANDARD PLATE.
[6] abbreviates: Test System: AMES SALMONELLA TYPHIMURIUM, Strain/Indicator: TA1535, Metabolic Activation: RAT, LIVER, S-9, AROCLOR 1254, Method: STANDARD PLATE.
[7] abbreviates: Test System: AMES SALMONELLA TYPHIMURIUM, Strain/Indicator: TA1537, Metabolic Activation: NONE, Method: STANDARD PLATE.
Where [8] appears, read: Test System: AMES SALMONELLA TYPHIMURIUM, Strain/Indicator: TA1537, Metabolic Activation: RAT, LIVER, S-9, AROCLOR 1254, Method: STANDARD PLATE.
Setting [9] is: Test System: AMES SALMONELLA TYPHIMURIUM, Strain/Indicator: TA98, Metabolic Activation: RAT, LIVER, S-9, PHENOBARBITAL, Method: STANDARD PLATE.
Setting [10] is: Test System: AMES SALMONELLA TYPHIMURIUM, Strain/Indicator: TA100, Metabolic Activation: RAT, LIVER, S-9, PHENOBARBITAL, Method: STANDARD PLATE.
[11] abbreviates: Test System: AMES SALMONELLA TYPHIMURIUM, Strain/Indicator: TA1535, Metabolic Activation: RAT, LIVER, S-9, PHENOBARBITAL, Method: STANDARD PLATE.

For `Nc1nc2ccc([N+](=O)[O-])cc2s1`, the mutagenic call reads like this: (Test System: AMES SALMONELLA TYPHIMURIUM, Strain/Indicator: TA98, Metabolic Activation: HAMSTER, LIVER, S-9, AROCLOR 1254, Method: STANDARD PLATE) “active; positive”; under setting [1], “active; positive”; under setting [2], “active; positive”; (Test System: AMES SALMONELLA TYPHIMURIUM, Strain/Indicator: TA100, Metabolic Activation: HAMSTER, LIVER, S-9, AROCLOR 1254, Method: STANDARD PLATE) “active; positive”; under setting [3], “inactive; negative”; under setting [4], “active; positive”. Besides, the mutagenic call runs as follows: (Test System: AMES SALMONELLA TYPHIMURIUM, Strain/Indicator: TA1535, Metabolic Activation: HAMSTER, LIVER, S-9, AROCLOR 1254, Method: STANDARD PLATE) “active; positive”; under setting [5], “inactive; negative”; under setting [6], “inactive; negative”; (Test System: AMES SALMONELLA TYPHIMURIUM, Strain/Indicator: TA1537, Metabolic Activation: HAMSTER, LIVER, S-9, AROCLOR 1254, Method: STANDARD PLATE) “active; positive”; under setting [7], “inactive; negative”; under setting [8], “inactive; negative”. Besides, the mutagenic call (Test System: AMES SALMONELLA TYPHIMURIUM, Strain/Indicator: TA1538, Metabolic Activation: HAMSTER, LIVER, S-9, AROCLOR 1254, Method: STANDARD PLATE) is “active; positive”; the mutagenic call (Test System: AMES SALMONELLA TYPHIMURIUM, Strain/Indicator: TA1538, Metabolic Activation: NONE, Method: STANDARD PLATE) was “active; positive”; the mutagenic call (Test System: AMES SALMONELLA TYPHIMURIUM, Strain/Indicator: TA1538, Metabolic Activation: RAT, LIVER, S-9, AROCLOR 1254, Method: STANDARD PLATE) is “active; positive”; the mutagenic call (Test System: MOUSE LYMPHOMA, Strain/Indicator: L5178Y (TK+/TK-), Metabolic Activation: NONE, Method: SUSPENSION/PLATE) was “inactive; negative. reevaluation of results: negative”; the mutagenic call (Test System: MOUSE LYMPHOMA, Strain/Indicator: L5178Y (TK+/TK-), Metabolic Activation: RAT, LIVER, S-9, AROCLOR 1254, Method: SUSPENSION/PLATE) was “inactive; negative. reevaluation of results: negative”.
For `O=CC=C(Cl)Cl`, the mutagenic call under setting [1] is “active; positive”; the mutagenic call under setting [2] was “inactive; negative”; the mutagenic call under setting [3] was “active; positive”; the mutagenic call under setting [4] was “active; positive”; the mutagenic call under setting [5] is “active; positive”; the mutagenic call under setting [6] was “active; positive”. For the same molecule, the mutagenic call is, setting by setting: under setting [7], “inactive; negative”; under setting [8], “inactive; negative”.
Turning to `CC1(C(=O)Nc2ccccc2)CO1` (centres undefined), the mutagenic call runs as follows: (Test System: AMES SALMONELLA TYPHIMURIUM, Strain/Indicator: TA100, Metabolic Activation: MOUSE, LIVER, S-9, AROCLOR 1254, Method: STANDARD PLATE) “active; positive”; under setting [3], “active; positive”.
As for `CC(=O)O[C@H]1[C@H](OC(C)=O)COC(Nc2ccc([N+](=O)[O-])cc2)[C@@H]1OC(C)=O` (some centres undefined), the mutagenic call under setting [3] was “inactive; negative”.
Take `CCOP(=S)(OCC)Oc1ccc(S(C)=O)cc1` (centres undefined): the mutagenic call (End Point: In vivo micronucleus, Species: Mouse, Strain/Sex: NMRI/Male and female) is “inactive; negative”.
As to `C[C@@H]1C[C@H]2[C@@H]3CCC4=CC(=O)C=C[C@]4(C)[C@@]3(F)[C@@H](O)C[C@]2(C)[C@@]1(O)C(=O)CO`, the mutagenic call is, setting by setting: (End Point: IN VITRO CHROMOSOMAL ABERRATIONS, Test System: HUMAN PERIPHERAL LYMPHOCYTES, Metabolic Activation: NONE) “active; positive at 10 and 100 ug/ml with 72 hr treatment”; (End Point: IN VIVO MICRONUCLEUS, Test System: BONE MARROW POLYCHROMATIC ERYTHROCYTES, Species: MOUSE, Strain/Sex: SWISS/MALE, Route: IP INJECTION (SINGLE DOSE)) “active; positive”; (Test System: AMES SALMONELLA TYPHIMURIUM, Strain/Indicator: TA97A, Metabolic Activation: NONE, Method: STANDARD PLATE) “inactive; negative”; (Test System: AMES SALMONELLA TYPHIMURIUM, Strain/Indicator: TA97A, Metabolic Activation: RAT, LIVER, S-9, PHENOBARBITAL, Method: STANDARD PLATE) “inactive; negative”; under setting [1], “inactive; negative”; under setting [9], “inactive; negative”. The mutagenic call runs as follows: under setting [3], “inactive; negative”; under setting [10], “inactive; negative”; under setting [5], “inactive; negative”; under setting [11], “inactive; negative”.
`COc1cccc2c1cc1c3c(cc4c(c32)OCO4)C(=O)N1`: the mutagenic call is “inactive; negative” (Test System: AMES SALMONELLA TYPHIMURIUM, Strain/Indicator: D3052, Metabolic Activation: NONE, Method: STANDARD PLATE); “inactive; negative” (Test System: AMES SALMONELLA TYPHIMURIUM, Strain/Indicator: D3052, Metabolic Activation: RAT, LIVER, S-9, PHENOBARBITAL, Method: STANDARD PLATE); “inactive; negative” (Test System: AMES SALMONELLA TYPHIMURIUM, Strain/Indicator: G46, Metabolic Activation: NONE, Method: STANDARD PLATE); “inactive; negative” (Test System: AMES SALMONELLA TYPHIMURIUM, Strain/Indicator: G46, Metabolic Activation: RAT, LIVER, S-9, PHENOBARBITAL, Method: STANDARD PLATE); “inactive; negative” under setting [1]; “inactive; negative” under setting [9]. The mutagenic call is, setting by setting: under setting [3], “inactive; negative”; under setting [4], “active; positive”; under setting [10], “inactive; negative”; under setting [5], “inactive; negative”; under setting [11], “inactive; negative”; under setting [7], “inactive; negative”. Besides, the mutagenic call was “active; positive” under setting [8]; “inactive; negative” (Test System: AMES SALMONELLA TYPHIMURIUM, Strain/Indicator: TA1978, Metabolic Activation: NONE, Method: STANDARD PLATE); “inactive; negative” (Test System: AMES SALMONELLA TYPHIMURIUM, Strain/Indicator: TA1978, Metabolic Activation: RAT, LIVER, S-9, PHENOBARBITAL, Method: STANDARD PLATE); “inactive; negative” (Test System: AMES SALMONELLA TYPHIMURIUM, Strain/Indicator: TM677/8-AZAGUANINE, Metabolic Activation: NONE, Method: SUSPENSION/PLATE).
For the molecule `CCc1ccc(/C=C/c2ccc(N)cc2)cc1`, the mutagenic call was “inactive; negative” under setting [1]; “active; positive” (Test System: AMES SALMONELLA TYPHIMURIUM, Strain/Indicator: TA98, Metabolic Activation: RAT LIVER S9, AROCLOR, Method: STANDARD PLATE); “inactive; negative” under setting [3]; “active; positive” (Test System: AMES SALMONELLA TYPHIMURIUM, Strain/Indicator: TA100, Metabolic Activation: RAT, LIVER, S9, AROCLOR, Method: STANDARD PLATE).
With `CC(=O)Nc1ccc([C@@H]2O[C@@H]2C(=O)c2ccccc2)cc1`, the mutagenic call is, setting by setting: under setting [1], “inactive; negative”; under setting [2], “active; positive”; under setting [3], “active; positive”; under setting [4], “active; positive”.
Consider `OC1C2OC2=C2C=c3ccc4cccc5ccc(c3c54)C2C1O` (centres undefined), for which the mutagenic call (Test System: CHINESE HAMSTER V-79, Strain/Indicator: V-79/8-AZAGUANINE, Metabolic Activation: NONE, Method: STANDARD PLATE) was “active; positive”.
